# Assays:
# [1] = tested on: concanavalin A (ConA)-stimulated murine splenocytes; assay: Concanavalin A-stimulated splenocyte assay ([3H]thymidine incorporation); type: cell-based, BALB/c mice; details: for IC50: immunosuppressive activity of the novel cyclosporin alkyne analogue compound
# Protocol: Male BALB/c mice, at 5 to 7 weeks of age, were sacrificed by CO2 inhalation. Spleens were removed and dissociated by pushing through a nylon cell strainer. The splenocytes were washed in RPMI 1640/5% fetal calf serum (FCS) and pelleted at 400×g. Red blood cells were then lysed by resuspending the cell pellet in ACK lysis buffer (150 mM NH4Cl, 1 mM KHCO3, 0.1 mM EDTA, 3 mL per spleen) for 10 min at room temperature. After pelleting at 400×g, the cells were washed by resuspending in RPMI 1640/5% FCS and repelleting. The cell pellet was resuspended in RPMI 1640/5% FCS and again passed through a cell strainer to remove cell aggregates. The cells were then counted and adjusted to 2×10^6 cells/ml in RPMI 1640/10% FCS/50 μM 2-mercaptoethanol. Cell viability was assessed by Trypan blue staining. […] The cells were cultured in a 37° C. CO2 incubator for 2 days and then pulsed with 1 μCi of [^3H]thymidine for 6 hours. Cells were harvested onto filtermats with a TomTec 96 well plate harvester and lysed with H2O. The filtermat and scintillation fluid were sealed in a plastic sleeve. [^3H]thymidine incorporation was measured with a Wallac Trilux plate counter. Initial screens were done at a fixed value of 100 ng/ml test compound. IC50s were calculated from 7 point concentration-response curves using GraphPad software.
# [2] = literature value, Rich et al.; cited from earlier work
Structure (SMILES),IC50 [1],relative immunosuppressive activity compared to cyclosporin A [2],"immunosuppressive activity (as determined by IC50) relative to ISATX247 ([1]; FIG. 1, compared to ISATX247)","immunosuppressive activity (as determined by IC50) relative to cyclosporin A ([1]; FIG. 1, compared to cyclosporin A)",potency in immunosuppression compared to cyclosporin A and ISATX247 ([1]; FIG. 1 legend)
"CCC1NC(=O)C(C(O)C(C)CC=CC#CBr)N(C)C(=O)C(C(C)C)N(C)C(=O)C(CC(C)C)N(C)C(=O)C(CC(C)C)N(C)C(=O)C(C)NC(=O)C(C)NC(=O)C(CC(C)C)N(C)C(=O)C(C(C)C)NC(=O)C(CC(C)C)N(C)C(=O)CN(C)C1=O (stereo not shown) [Example 15, cyclosporin alkynyl bromide]",8 ng/mL,–,–,–,–
"CCC1NC(=O)C(C(O)C(C)CC=CC#CI)N(C)C(=O)C(C(C)C)N(C)C(=O)C(CC(C)C)N(C)C(=O)C(CC(C)C)N(C)C(=O)C(C)NC(=O)C(C)NC(=O)C(CC(C)C)N(C)C(=O)C(C(C)C)NC(=O)C(CC(C)C)N(C)C(=O)CN(C)C1=O (stereo not shown) [Example 13, cyclosporin alkynyl iodide]",1 ng/mL,–,–,–,–
CC#CC[C@@H](C)[C@@H](O)[C@H]1C(=O)N[C@@H](CC)C(=O)N(C)CC(=O)N(C)[C@@H](CC(C)C)C(=O)N[C@@H](C(C)C)C(=O)N(C)[C@@H](CC(C)C)C(=O)N[C@@H](C)C(=O)N[C@H](C)C(=O)N(C)[C@@H](CC(C)C)C(=O)N(C)[C@@H](CC(C)C)C(=O)N(C)[C@@H](C(C)C)C(=O)N1C [known cyclosporin alkyne],–,10%,–,–,–
"CC[C@@H]1NC(=O)[C@H]([C@H](O)[C@H](C)C/C=C/C#CC2CC2)N(C)C(=O)[C@H](C(C)C)N(C)C(=O)[C@H](CC(C)C)N(C)C(=O)[C@H](CC(C)C)N(C)C(=O)[C@@H](C)NC(=O)[C@H](C)NC(=O)[C@H](CC(C)C)N(C)C(=O)[C@H](C(C)C)NC(=O)[C@H](CC(C)C)N(C)C(=O)CN(C)C1=O [Example 33, cyclosporin cyclopropyl alkyne]",9 ng/mL,–,equipotent,up to two times more active,enhanced or similar potency

# — US7378391B2, “Cyclosporin alkyne analogues and their pharmaceutical uses” (AMR Technology, Inc., priority 2004, dated 2008)
